In patent US20260184692A1, “HETEROCYCLIC COMPOUNDS, PREPARATION METHODS AND USES THEREOF” (InventisBio Co., Ltd., priority 2022, published 2026):

Key:
OVCAR3 Cells = assay: OVCAR3 Cell Viability Assay (CellTiter-Glo); assay type: cell-based; conditions: Homo sapiens, OVCAR-3, 144 h, 6 days incubation, read-out: OVCAR3 CTG IC50
Description: (§1) OVCAR3 Cells (ATCC, Cat #HTB-161) were seeded at a density of 2000 cells/well in a 96-well clear bottom plate (Greiner, Cat #655098) in 100 μL of complete media (RPMI1640+20% FBS+0.01 mg/mL human insulin). One hundred microliter of complete media was added into the blank well (column 1) for low control. Cells were allowed to adhere to the plate overnight in the incubator at 37° C., 5% CO2. On the following day, 0.5 μL of serially-diluted compounds were added to the cells (columns 2-10) and incubated for 6 days at 37 C, 5% CO2 (final 0.5% DMSO concentration); 0.5 μL of DMSO solution was added into the wells (column 11) for high control. Cell viability was detected according to the CellTiter-Glo Luminescent Cell Viability Assay Kit (Promega, Cat #G7573). Luminescence was recorded on the Tecan Spark plate reader. Inhibition rate (IR) of the tested compounds was determined by the following formula: IR (%)=(1−(RLUcompound−RLUlow control)/(RLUhigh control−RLUlow control))×100%. The IC50 value was calculated using the non-linear regression equation: Y=Bottom+(Top−Bottom)/(1+10^((Log IC50−X)×HillSlope)), where X is Log of compound concentration, Y is percent inhibition (IR (%)), Top and Bottom are plateaus in same units as Y.

[1] = Human Plasma Protein Binding Assay (dialysis); assay type: in vitro ADME; conditions: 1 μM compound, dialysis 6 hr at 37 °C
Description: The plasma protein binding of compounds in human plasma was determined using a dialysis method. The dialysis membrane strips were prepared by soaking them in ultra-pure water for about 1 hr at room temperature, followed by separation and soaking in ethanol:water (20:80 v:v) for about 20 min, and a final rinse with ultra-pure water. Prior to use, the membranes were rinsed and soaked for another 20 min in ultra-pure water.
The blank plasma samples were thawed, centrifuged and verified its pH values. Only the plasma with pH between 7.0-8.0 was used in the experiment. The final concentration of compound in the spiked plasma is 1 μM, with final DMSO<=1%. All samples were prepared in triplicates. The time zero (T0) samples was used for determining the recovery of the compound of interest after dialysis. It was prepared in the same way as other dialysis samples except it was stored at 2-8° C. before LC-MS/MS analysis.
The other spiked plasma samples were loaded onto the dialysis device and incubated at and 37±1° C. with 5% CO2 for 6 hr. At the end of the dialysis, aliquots of samples from the plasma and buffer sides of the dialysis device were taken and processed for LC-MS/MS analysis.
The % Unbound, % Bound, and % Recovery of the compounds were calculated from the peak area ratios of the analyte and internal standard in the plasma and buffer samples as shown in the following equations:
[formula] [formula] [formula] • where [F] is the peak area ratio of analyte/internal standard on the buffer (receiver) side of the membrane; [T] is the peak area ratio of analyte/internal standard on the plasma (donor) side of the membrane; [T0] is the peak area ratio of analyte/internal standard in the plasma sample at time zero.

[2] = Human Microsomal Clearance Assay; assay type: in vitro ADME; conditions: pH 7.4, human liver microsomes 0.5 mg/mL, 1 μM compound, 2 mM NADPH; for CLint scaled at 1 μM: in vitro intrinsic clearance
Description: This study aimed to assess the metabolic stability of a compound in human liver microsomes using a microsomal clearance assay.
A mixture containing 100 mM potassium phosphate, pH 7.4, 0.5 mg/mL liver microsomes, 2 mM NADPH, and 1 μM compound were prepared and added to 96-well plate. The plates were then incubated at 37° C. for different time points (0, 5, 15, 30, 45 minutes) and the reaction was stopped with acetonitrile solution containing an internal standard. The samples were then analyzed by LC/MS/MS to determine how much of the compound remained at each time point. The elimination rate constant and half-life were calculated from the data as follows: Elimination rate constant (k)=−slope; Half-life (T1/2)=0.693/k.
The in vitro intrinsic clearance, Clint, was calculated from the T1/2 as follows: Clint=(0.693/T1/2)×(1/(microsomal protein concentration (0.5 mg/mL)))×Physiological Scaling Factor.

HCC1806 Cells = assay: HCC1806 Cell Viability Assay (CellTiter-Glo); assay type: cell-based; conditions: Homo sapiens, 144 h, 6 days incubation, read-out: HCC1806 CTG IC50
Description: as §1, with “HCC1806 Cells” for “OVCAR3 Cells”, “Cat #CRL-2335)” for “Cat #HTB-161)”, “of 500” for “of 2000”, “media (RPMI1640+10% FBS).” for “media (RPMI1640+20% FBS+0.01 mg/mL human insulin).”, “blank wells” for “blank well”, “at 37° C.,” for “at 37 C,”

Mouse PK Assay = assay type: in vivo; conditions: plasma, male BALB/c mouse; for MRT: IV; for half-life: single oral dose 5 mg/kg, read-out: PO T1/2 (converted)
P450 2C9 = biological target: T1, P450 2C9 (Homo sapiens, UniProt P11712); assay: In Vitro Cytochrome P450 Inhibition Study; assay type: in vitro ADME; conditions: human liver microsomes (HLM), test compound 0.137 μM to 10 μM, 10 min at 37 °C
T1 construct: incubation with known industry-accepted CYP450 substrates, test articles and microsomes (HLM); from tissue; host or cells: liver microsomes (HLM)
Description: CYP inhibition was evaluated by monitoring corresponding metabolite decrease after incubation with known industry-accepted CYP450 substrates, test articles and microsomes (HLM).
Eight reaction wells with 30 μL of a solution containing 100 mM potassium phosphate, pH 7.4 and 1:3 serial dilutions of the test compound were prepared along with eight wells of 1:3 serial dilutions of Sulfaphenazole (a positive control inhibitor). The assay plates were pre-warmed after 15 μL of probe substrate was added into appropriate wells. Then the reactions were initiated by adding 15 μL of a pre-warmed 8 mM NADPH solution resulting in a final NADPH concentration of 2 mM. The concentrations of test compound ranged from 0.137 μM to 10 μM. A zero time-point control reaction was prepared by adding 135 μL acetonitrile (ACN) containing tolbutamide (200 ng/mL) as internal standard (IS) to 30 μL. of the reaction solution to inactivate the enzymes before adding the probe substrate. A control reaction with no inhibitor was also prepared. After a suitable incubation at 37° C., 10 min, the reactions were terminated by the addition of 135 μL ACN containing IS. The reactions were prepared and analyzed for the metabolite forms of the probe substrate using LC-MS/MS.

T1 sequence (P11712 whole entry): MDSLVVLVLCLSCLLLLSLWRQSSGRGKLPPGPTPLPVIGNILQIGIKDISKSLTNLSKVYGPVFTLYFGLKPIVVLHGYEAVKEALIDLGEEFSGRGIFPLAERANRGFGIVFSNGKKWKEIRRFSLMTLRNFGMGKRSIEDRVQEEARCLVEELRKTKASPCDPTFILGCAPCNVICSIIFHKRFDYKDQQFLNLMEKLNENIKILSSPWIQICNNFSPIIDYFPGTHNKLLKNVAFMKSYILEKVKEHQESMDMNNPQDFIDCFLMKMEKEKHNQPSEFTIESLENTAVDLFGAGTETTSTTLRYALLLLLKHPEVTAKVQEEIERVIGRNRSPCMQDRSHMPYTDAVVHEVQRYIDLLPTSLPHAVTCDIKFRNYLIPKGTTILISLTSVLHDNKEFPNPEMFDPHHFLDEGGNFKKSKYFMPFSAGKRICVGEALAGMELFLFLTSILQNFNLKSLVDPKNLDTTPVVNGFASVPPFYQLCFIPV

Question: Which IC50 (OVCAR3 Cells) does the source give for `O=C1c2ccc(NS(=O)(=O)CCO)cc2C2(CCC3(CC3)CC2)CN1c1ccnc(NC2CCC(F)(F)C2)n1` (single isomer, unassigned) [Compound 71] here?
Answer: The IC50 was under 0.2 µM.

Question: What about the fraction unbound at 6 hr, 1 μM [1] of the same molecule?
Answer: Its fraction unbound at 6 hr, 1 μM is 0.0014.

Question: With `N#Cc1ccc(N2CC3(CCC4(CC4)CC3)c3cc(NS(=O)(=O)CCO)ccc3C2=O)nc1NC1CCC(F)(F)C1` (single isomer, unassigned) [Compound 110] as the molecule, how does the half-life at 1 μM [2] read?
Answer: The half-life at 1 μM was 2.52 h.

Question: What about the CLint scaled at 1 μM [2] of the same molecule?
Answer: The CLint scaled at 1 μM was under 0.744 L/h/kg.

Question: For `O=C1c2ccc(NS(=O)(=O)CCO)cc2C2(CCC3(CC3)CC2)CN1c1ccnc(N2CCC(F)(F)CC2)n1` [Compound 1], which IC50 (HCC1806 Cells) is on record?
Answer: The IC50 was under 0.2 µM.

Question: And the MRT (Mouse PK Assay)?
Answer: The MRT was 7.5 h.

Question: What about the half-life (Mouse PK Assay) of the same molecule?
Answer: The half-life was 4.8 h.

Question: What about the IC50 (OVCAR3 Cells) of the same molecule?
Answer: The IC50 was under 0.2 µM.

Question: Which results are given for `O=C(Nc1ccc2c(c1)ncn2CC(F)(F)F)c1ccc(NS(=O)(=O)CCO)cc1N1CCC2(CC1)CC2` [Compound 3]?
Answer: IC50 (HCC1806 Cells): > 2 µM; IC50 (OVCAR3 Cells): > 2 µM

Question: For `Cc1cc(NC(=O)c2ccc(NS(=O)(=O)CCO)cc2C2=CCC3(CC2)CC3)nc(N2CCC(F)(F)CC2)n1` [Compound 6], which IC50 (HCC1806 Cells) is on record?
Answer: The IC50 was under 0.2 µM.

Question: And the IC50 (OVCAR3 Cells)?
Answer: Its IC50 is under 0.2 µM.

Question: With `CN1CCOc2ccc(NC(=O)c3ccc(NS(=O)(=O)CCO)cc3N3CCC4(CC3)CC4)nc21` [Compound 7] as the molecule, how does the IC50 (HCC1806 Cells) read?
Answer: Its IC50 is over 2 µM.

Question: For `O=C1c2ccc(NS(=O)(=O)CCO)cc2C2(CCC3(CC3)CC2)CN1c1ccnc(N2CCC(F)(F)C2)n1` [Compound 12], which IC50 (HCC1806 Cells) is on record?
Answer: Its IC50 is 0.2 to 2 µM.

Question: What about the IC50 (OVCAR3 Cells) of the same molecule?
Answer: The IC50 was 0.2 to 2 µM.

Question: For `O=C1c2ccc(NS(=O)(=O)CCO)cc2C2(CCC3(CC3)CC2)CN1c1ccnc(NC2CC(F)(F)C2)n1` [Compound 21], which IC50 (OVCAR3 Cells) is on record?
Answer: The IC50 was under 0.2 µM.

Question: And the fraction unbound at 6 hr, 1 μM [1]?
Answer: The fraction unbound at 6 hr, 1 μM was 0.002.

Question: With `O=C1c2ccc(NS(=O)(=O)CCO)cc2C2(CCC3(CC3)CC2)CN1c1cccc(N2CCC3CC32)n1` (stereo not shown) [Compound 26] as the molecule, how does the IC50 (HCC1806 Cells) read?
Answer: The IC50 was 0.2 to 2 µM.

Question: What about the IC50 (OVCAR3 Cells) of the same molecule?
Answer: Its IC50 is 0.2 to 2 µM.

Question: With `O=C1c2ccc(NS(=O)(=O)CCO)cc2C2(CCC3(CC3)CC2)CN1c1ccc2c(n1)N1CCC(F)(F)CC1CO2` (stereo not shown) [Compound 31] as the molecule, how does the IC50 (HCC1806 Cells) read?
Answer: Its IC50 is 0.2 to 2 µM.

Question: And the IC50 (OVCAR3 Cells)?
Answer: Its IC50 is 0.2 to 2 µM.

Question: For `CN(c1cccc(N2CC3(CCC4(CC4)CC3)c3cc(NS(=O)(=O)CCO)ccc3C2=O)n1)C1CC(F)(F)C1` [Compound 34], which IC50 (HCC1806 Cells) is on record?
Answer: Its IC50 is under 0.2 µM.

Question: And the IC50 (OVCAR3 Cells)?
Answer: Its IC50 is under 0.2 µM.

Question: Which IC50 (OVCAR3 Cells) does the source give for `N#Cc1ccc(N2CC3(CCC4(CC4)CC3)c3cc(NS(=O)(=O)CCO)ccc3C2=O)nc1NC1CC(F)(F)C1` [Compound 56] here?
Answer: The IC50 was under 0.2 µM.

Question: What about the half-life at 1 μM [2] of the same molecule?
Answer: Its half-life at 1 μM is 2.37 h.

Question: What about the CLint scaled at 1 μM [2] of the same molecule?
Answer: Its CLint scaled at 1 μM is under 0.744 L/h/kg.

Question: Which MRT (Mouse PK Assay) does the source give for `N#Cc1ccc(N2CC3(CCC4(CC4)CC3)c3cc(NS(=O)(=O)CCO)c(F)cc3C2=O)nc1N1CCC(F)(F)CC1` [Compound 75] here?
Answer: Its MRT is 8 h.

Question: What about the half-life (Mouse PK Assay) of the same molecule?
Answer: The half-life was 6.3 h.

Question: What does the source list for `N#Cc1ccc(N2CC3(CCC4(CC4)CC3)c3cc(NS(=O)(=O)CCO)ncc3C2=O)nc1N1CCC(F)(F)CC1` [Compound 80]?
Answer: IC50 (P450 2C9): > 10 µM; IC50 (OVCAR3 Cells): < 0.2 µM

Question: With `CC1(C)CCC2(CC1)CN(c1ccc(C#N)c(N3CCC(F)(F)CC3)n1)C(=O)c1ccc(NS(=O)(=O)CCO)cc12` [Compound 90] as the molecule, how does the IC50 (P450 2C9) read?
Answer: The IC50 was over 10 µM.

Question: What about the IC50 (OVCAR3 Cells) of the same molecule?
Answer: Its IC50 is under 0.2 µM.

Question: With `CC1(C)CCC2(CC1)CN(c1ccc(C#N)c(NC3CC(F)(F)C3)n1)C(=O)c1ccc(NS(=O)(=O)CCO)cc12` [Compound 95] as the molecule, how does the IC50 (OVCAR3 Cells) read?
Answer: The IC50 was under 0.2 µM.

Question: And the half-life at 1 μM [2]?
Answer: Its half-life at 1 μM is 1.98 h.

Question: And the CLint scaled at 1 μM [2]?
Answer: The CLint scaled at 1 μM was 0.876 L/h/kg.

Question: For `N#Cc1ccc(N2CC3(CCC4(CCC4)CC3)c3cc(NS(=O)(=O)CCO)ccc3C2=O)nc1N1CCC(F)(F)CC1` [Compound 116], which MRT (Mouse PK Assay) is on record?
Answer: The MRT was 6.9 h.

Question: And the half-life (Mouse PK Assay)?
Answer: Its half-life is 4.6 h.

Question: And the IC50 (P450 2C9)?
Answer: The IC50 was 6.7 µM.

Question: And the IC50 (OVCAR3 Cells)?
Answer: Its IC50 is under 0.2 µM.

Question: For `CCS(=O)(=O)Nc1ccc2c(c1)C1(CCC3(CC3)CC1)CN(c1ccc(C#N)c(S(=O)(=O)NC(C)(C)C)c1)C2=O` [Compound 120], which IC50 (OVCAR3 Cells) is on record?
Answer: Its IC50 is under 0.2 µM.

Question: What about the fraction unbound at 6 hr, 1 μM [1] of the same molecule?
Answer: The fraction unbound at 6 hr, 1 μM was 0.0122.

Question: For `COCCOc1ccc(N2CC3(CCC4(CC4)CC3)c3cc(NS(=O)(=O)CCO)ccc3C2=O)nc1N1CCC(F)(F)CC1` [Compound 136], which IC50 (P450 2C9) is on record?
Answer: Its IC50 is over 10 µM.

Question: What about the IC50 (OVCAR3 Cells) of the same molecule?
Answer: Its IC50 is under 0.2 µM.
